Test results taken from patent publication US20230278972A1, “SUBSTITUTED HALOALKYL SULFONANILIDE HERBICIDES” (FMC Corporation, priority 2020, published 2023).

Tests used:
Format in all cases: in vivo
[1] = system: barnyardgrass (Echinochloa crus-galli); assay: Test A preemergence, barnyardgrass; settings: Preemergence; for Barnyardgrass plant response rating: 125 g ai/ha, visual injury on 0 to 100 scale (0 no effect, 100 complete control), approximately 10 days; for Plant response rating, Barnyardgrass: 500 g ai/ha, 0 to 100 scale (0 no effect, 100 complete control)
Method in brief: (§1)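 Directed soil spray at planting gave the preemergence treatment, while foliar application to one- to two-leaf seedlings (2–10 cm) gave the postemergence one; pots held a loam and sand mixture and chemicals were carried in a non-phytotoxic solvent with surfactant.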

kochia (Bassia scoparia) [2] = assay: Test A preemergence, kochia; settings: Preemergence; for Kochia plant response rating: 125 g ai/ha, visual injury on 0 to 100 scale (0 no effect, 100 complete control), approximately 10 days; for Plant response rating, Kochia: 500 g ai/ha, 0 to 100 scale (0 no effect, 100 complete control)
Method in brief: as §1

[3] = system: ragweed (common ragweed, Ambrosia artemisiifolia); assay: Test A preemergence, ragweed; settings: Preemergence; for Ragweed plant response rating: 125 g ai/ha, visual injury on 0 to 100 scale (0 no effect, 100 complete control), approximately 10 days; for Plant response rating, Ragweed: 500 g ai/ha, 0 to 100 scale (0 no effect, 100 complete control)
Method in brief: as §1

[4] = system: Ryegrass, Italian (Italian ryegrass, Lolium multiflorum); assay: Test A preemergence, Ryegrass, Italian; settings: Preemergence; for Ryegrass, Italian plant response rating: 125 g ai/ha, visual injury on 0 to 100 scale (0 no effect, 100 complete control), approximately 10 days; for Plant response rating, Ryegrass, Italian: 500 g ai/ha, 0 to 100 scale (0 no effect, 100 complete control)
Method in brief: as §1

[5] = system: Foxtail, Giant (giant foxtail, Setaria faberi); assay: Test A preemergence, Foxtail, Giant; settings: Preemergence; for Foxtail, Giant plant response rating: 125 g ai/ha, visual injury on 0 to 100 scale (0 no effect, 100 complete control), approximately 10 days; for Plant response rating, Foxtail, Giant: 500 g ai/ha, 0 to 100 scale (0 no effect, 100 complete control)
Method in brief: as §1

[6] = system: pigweed (Amaranthus retroflexus); assay: Test A preemergence, pigweed; settings: for Pigweed plant response rating: 125 g ai/ha, visual injury on 0 to 100 scale (0 no effect, 100 complete control), approximately 10 days; for Plant response rating, Pigweed: 500 g ai/ha, 0 to 100 scale (0 no effect, 100 complete control)
Method in brief: (§2)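 Preemergence: seeded pots of loam plus sand received a directed soil spray. Postemergence: seedlings at one to two leaves, 2 to 10 cm high, were oversprayed. Each compound was formulated in a non-phytotoxic solvent mix that included a surfactant.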

[7] = system: barnyardgrass (Echinochloa crus-galli); assay: Test A postemergence, barnyardgrass; settings: Postemergence, 0 to 100 scale (0 no effect, 100 complete control)
Method in brief: as §2

kochia (Bassia scoparia) [8] = assay: Test A postemergence, kochia; settings: Postemergence, 0 to 100 scale (0 no effect, 100 complete control)
Method in brief: as §1

[9] = system: ragweed (common ragweed, Ambrosia artemisiifolia); assay: Test A postemergence, ragweed; settings: Postemergence, 0 to 100 scale (0 no effect, 100 complete control)
Method in brief: as §1

[10] = system: Ryegrass, Italian (Italian ryegrass, Lolium multiflorum); assay: Test A postemergence, Ryegrass, Italian; settings: Postemergence, 0 to 100 scale (0 no effect, 100 complete control)
Method in brief: as §1

[11] = system: Foxtail, Giant (giant foxtail, Setaria faberi); assay: Test A postemergence, Foxtail, Giant; settings: Postemergence, 0 to 100 scale (0 no effect, 100 complete control)
Method in brief: as §1

[12] = system: pigweed (Amaranthus retroflexus); assay: Test A postemergence, pigweed; settings: Postemergence, 0 to 100 scale (0 no effect, 100 complete control)
Method in brief: as §1

[13] = system: wheat (Triticum aestivum); assay: Test A postemergence, wheat; settings: Postemergence, 0 to 100 scale (0 no effect, 100 complete control)
Method in brief: as §2

corn (Zea mays) = assay: Test A postemergence, corn; settings: Postemergence, 0 to 100 scale (0 no effect, 100 complete control)
Method in brief: as §1

[14] = system: blackgrass (Alopecurus myosuroides); assay: Test A postemergence, blackgrass; settings: Postemergence, 0 to 100 scale (0 no effect, 100 complete control)
Method in brief: as §1

[15] = system: galium (catchweed bedstraw, Galium aparine); assay: Test A postemergence, galium; settings: Postemergence, 0 to 100 scale (0 no effect, 100 complete control)
Method in brief: as §2

[16] = 125 g ai/ha, visual injury approx. 10 days
[17] = 500 g ai/ha, visual injury, approx. 10 days

| SMILES | Barnyardgrass plant response rating [1] | Plant response rating, Barnyardgrass [1] | Kochia plant response rating (kochia (Bassia scoparia) [2]) | Plant response rating, Kochia (kochia (Bassia scoparia) [2]) | Ragweed plant response rating [3] | Plant response rating, Ragweed [3] | Ryegrass, Italian plant response rating [4] | Plant response rating, Ryegrass, Italian [4] | Foxtail, Giant plant response rating [5] | Plant response rating, Foxtail, Giant [5] | Pigweed plant response rating [6] | Plant response rating, Pigweed [6] | Plant response rating, Barnyardgrass [7, 16] | Plant response rating, Barnyardgrass [7, 17] | Plant response rating, Kochia (kochia (Bassia scoparia) [8]; [16]) | Plant response rating, Kochia (kochia (Bassia scoparia) [8]; [17]) | Plant response rating, Ragweed [9, 16] | Plant response rating, Ragweed [9, 17] | Plant response rating, Ryegrass, Italian [10, 16] | Plant response rating, Ryegrass, Italian [10, 17] | also measured |
| --- | --- | --- | --- | --- | --- | --- | --- | --- | --- | --- | --- | --- | --- | --- | --- | --- | --- | --- | --- | --- | --- |
| CCn1c(=O)c(-c2cc(NS(=O)(=O)C(F)(F)F)c(C)cc2C)cn(C)c1=O [Compound 37] | 90 | 90 | 80 | 90 | 40 | 80 | 100 | 100 | 100 | 100 | 50 | 90 | 90 | 90 | 60 | 70 | 30 | 70 | 90 | 90 | Plant response rating, Foxtail, Giant [11, 16]: 90; Plant response rating, Foxtail, Giant [11, 17]: 90; Plant response rating, Pigweed [12, 16]: 50; Plant response rating, Pigweed [12, 17]: 50; Plant response rating, Wheat [13, 16]: 80; Plant response rating, Wheat [13, 17]: 80; Plant response rating, Corn (corn (Zea mays); [16]): 20; Plant response rating, Corn (corn (Zea mays); [17]): 80; Plant response rating, Blackgrass [14, 16]: 80; Plant response rating, Blackgrass [14, 17]: 90; Plant response rating, Galium [15, 16]: 90; Plant response rating, Galium [15, 17]: 100 |
| Cc1cc(Cl)c(N(S(=O)(=O)C(F)(F)F)S(=O)(=O)C(F)(F)F)cc1-c1cn(C)c(=O)n(C)c1=O [Compound 38] | 90 | 100 | 80 | 90 | 70 | 90 | 100 | 100 | 100 | 100 | 40 | 80 | 60 | 80 | 60 | 70 | 80 | 90 | 60 | 80 | Plant response rating, Foxtail, Giant [11, 16]: 90; Plant response rating, Foxtail, Giant [11, 17]: 90; Plant response rating, Pigweed [12, 16]: 70; Plant response rating, Pigweed [12, 17]: 90; Plant response rating, Wheat [13, 16]: 70; Plant response rating, Wheat [13, 17]: 70; Plant response rating, Corn (corn (Zea mays); [16]): 20; Plant response rating, Corn (corn (Zea mays); [17]): 70; Plant response rating, Blackgrass [14, 16]: 80; Plant response rating, Blackgrass [14, 17]: 90; Plant response rating, Galium [15, 16]: 80; Plant response rating, Galium [15, 17]: 90 |
| Cc1cc(C)c(N(S(C)(=O)=O)S(=O)(=O)C(F)(F)F)cc1-c1cc(C(C)C)nn(C)c1=O [Compound 39] | 40 | 90 | 0 | 0 | 0 | 30 | 30 | 70 | 10 | 90 | 0 | 0 | 0 | 30 | 0 | 0 | 20 | 70 | 0 | 40 | Plant response rating, Foxtail, Giant [11, 16]: 0; Plant response rating, Foxtail, Giant [11, 17]: 0; Plant response rating, Pigweed [12, 16]: 0; Plant response rating, Pigweed [12, 17]: 0; Plant response rating, Wheat [13, 16]: 60; Plant response rating, Wheat [13, 17]: 60; Plant response rating, Corn (corn (Zea mays); [16]): 0; Plant response rating, Corn (corn (Zea mays); [17]): 0; Plant response rating, Blackgrass [14, 16]: 0; Plant response rating, Blackgrass [14, 17]: 0; Plant response rating, Galium [15, 16]: 0; Plant response rating, Galium [15, 17]: 0 |
| COc1cnn(-c2cc(N(S(=O)(=O)C(F)(F)F)S(=O)(=O)C(F)(F)F)c(C)cc2C)c(=O)c1OC [Compound 40] | 90 | 90 | 80 | 80 | 50 | 50 | 30 | 80 | 90 | 100 | 100 | 100 | 10 | 40 | 10 | 20 | 40 | 40 | 30 | 60 | Plant response rating, Foxtail, Giant [11, 16]: 0; Plant response rating, Foxtail, Giant [11, 17]: 10; Plant response rating, Pigweed [12, 16]: 0; Plant response rating, Pigweed [12, 17]: 30; Plant response rating, Wheat [13, 16]: 0; Plant response rating, Wheat [13, 17]: 40; Plant response rating, Corn (corn (Zea mays); [16]): 0; Plant response rating, Corn (corn (Zea mays); [17]): 0; Plant response rating, Blackgrass [14, 16]: 10; Plant response rating, Blackgrass [14, 17]: 10; Plant response rating, Galium [15, 16]: 20; Plant response rating, Galium [15, 17]: 70 |
| Cc1cc(C)c(-c2cc(C(C)C)nn(C)c2=O)cc1NS(=O)(=O)C(F)(F)F [Compound 41] | 50 | 90 | 0 | 0 | 30 | 80 | 60 | 80 | 10 | 80 | 0 | 0 | 0 | 80 | 0 | 0 | 40 | 70 | 60 | 60 | Plant response rating, Foxtail, Giant [11, 16]: 0; Plant response rating, Foxtail, Giant [11, 17]: 30; Plant response rating, Pigweed [12, 16]: 0; Plant response rating, Pigweed [12, 17]: 0; Plant response rating, Wheat [13, 16]: 50; Plant response rating, Wheat [13, 17]: 60; Plant response rating, Corn (corn (Zea mays); [16]): 0; Plant response rating, Corn (corn (Zea mays); [17]): 0; Plant response rating, Blackgrass [14, 16]: 0; Plant response rating, Blackgrass [14, 17]: 40; Plant response rating, Galium [15, 16]: 10; Plant response rating, Galium [15, 17]: 30 |
| Cc1cc(C)c(N(S(=O)(=O)C(F)(F)F)S(=O)(=O)C(F)(F)F)cc1-c1cn(C)c(=O)n(C)c1=O [Compound 42] | 90 | 100 | 40 | 70 | 30 | 80 | 100 | 100 | 100 | 100 | 40 | 80 | 70 | 80 | 20 | 30 | 40 | 80 | 70 | 80 | Plant response rating, Foxtail, Giant [11, 16]: 90; Plant response rating, Foxtail, Giant [11, 17]: 90; Plant response rating, Pigweed [12, 16]: 40; Plant response rating, Pigweed [12, 17]: 100; Plant response rating, Wheat [13, 16]: 70; Plant response rating, Wheat [13, 17]: 70; Plant response rating, Corn (corn (Zea mays); [16]): 0; Plant response rating, Corn (corn (Zea mays); [17]): 60; Plant response rating, Blackgrass [14, 16]: 40; Plant response rating, Blackgrass [14, 17]: 90; Plant response rating, Galium [15, 16]: 50; Plant response rating, Galium [15, 17]: 60 |
| CCn1cc(-c2cc(N(S(=O)(=O)C(F)(F)F)S(=O)(=O)C(F)(F)F)c(C)cc2C)c(=O)n(CC)c1=O [Compound 43] | 90 | 100 | 0 | 90 | 0 | 0 | 100 | 100 | 100 | 100 | 20 | 60 | 90 | 90 | 20 | 40 | 60 | 60 | 20 | 50 | Plant response rating, Foxtail, Giant [11, 16]: 90; Plant response rating, Foxtail, Giant [11, 17]: 90; Plant response rating, Pigweed [12, 16]: 80; Plant response rating, Pigweed [12, 17]: 80; Plant response rating, Wheat [13, 16]: 70; Plant response rating, Wheat [13, 17]: 70; Plant response rating, Corn (corn (Zea mays); [16]): 10; Plant response rating, Corn (corn (Zea mays); [17]): 80; Plant response rating, Blackgrass [14, 16]: 70; Plant response rating, Blackgrass [14, 17]: 90; Plant response rating, Galium [15, 16]: 70; Plant response rating, Galium [15, 17]: 90 |
